Experiments:
[1] = system: bacterial organisms present in patient urine sample; experiment: Antibiotic Resistance (ABR) assay utilizing liquid growth medium; type: cell-based; conditions: liquid medium
Protocol: Urine samples suitable for processing with this assay are collected, transported, and stored using BD Vacutainer tubes or other suitable leak-proof sterile containers. Urine samples may be held at room temperature for 48 hours before test results are compromised.
Antibiotic stocks are stored at 2-8° C. and protected from direct sunlight. Prepared antibiotic stock solutions were aliquoted into a 96-deep well plate (ThermoFisher Scientific) to form a 50× Antibiotic Source Plate and then diluted 1:5 to form a 10× Antibiotic Source Plate, as shown in FIG. 12 where each well is identified by antibiotic name and concentration (μg/mL; 10× final concentration). […] One well was assigned sodium azide to ensure no bacterial growth would be observed in that well.
Twenty microliters of each antibiotic solution were aliquoted into the pre-determined wells of a 96-well microplate (VIS 96/F-PS, Eppendorf) from the 10× Antibiotic Source Plate to create ABR testing plates for inoculation. These ABR testing plates were allowed to sit for up to 24 hours before use at 2-8° C. in the dark.
At the time of testing, urine samples were centrifuged to concentrate any bacterial cells and then mixed with liquid Mueller-Hinton medium and incubated for 6-16 hours at 37° C. After this initial incubation, the sample is diluted to 0.5-0.6 McF in saline and then 500 μl of that suspension was added to […] of Mueller-Hinton medium. One-hundred and eighty microliters of the diluted sample is then aliquoted to each well of the ABR microplate already containing 10× antibiotic solution, bringing all of the antibiotics to the desired final concentration. The plate is then sealed and incubated for 12-16 hours at 37° C.
After incubation, the plate was removed from the incubator and carefully uncovered and the OD600 was determined for each appropriate well by spectrophotometer. Five separate measurements were taken of each well on a plate and the mean OD600 measurement calculated for each well.
Controls are depicted in Table 10.
The raw data was then “blanked” using the measurement obtained from the Na-Azide well, as depicted in Table 14.
(§1) To determine whether bacterial organisms present in the patient samples were resistant or sensitive to a particular antibiotic at a certain concentration, blanked OD readings were compared to a threshold OD600 of 0.065 (Table 15). An OD measurement greater than or equal to this threshold was designated Resistant (R) meaning bacterial organisms present in patient sample were resistant to that particular antibiotic at that certain concentration. Any OD measurement less than this threshold was designated Sensitive (S) meaning bacterial organisms present in patient sample were sensitive to that particular antibiotic at that certain concentration.

[2] = system: bacterial organisms present in patient urine sample; experiment: Antibiotic Resistance (ABR) assay utilizing agar-containing medium; type: cell-based
Protocol: Urine samples suitable for processing with this assay are collected, transported, and stored using BD Vacutainer (gray top) tubes or other suitable leak-proof sterile container. Urine samples may be held at room temperature for 48 hours before test results are compromised.
Antibiotic stocks are stored at 2-8° C. and protected from direct sunlight. Prepared antibiotic stock solutions were aliquoted into a 96-deep well plate (Thermo Fisher Scientific) to form an Antibiotic Source Plate, as shown in FIG. 11 and identified by antibiotic name and concentration (μg/mL; 10× final concentration). […] One well was designated AB-blend which contained a combination of antibiotics to ensure there was no bacterial growth.
One hundred microliters of Mueller-Hinton agar medium was aliquoted into each appropriate well position of a 96-well microplate (VIS 96/F-PS, Eppendorf). The medium was allowed to solidify at room temperature for at least 10 min.
The antibiotics (10 μL) at various concentrations were then aliquoted into desired wells from the Antibiotic Source Plate. After the antibiotics were introduced to the agar medium, the ABR microplates were allowed to sit for at least 1 hr before use. If long-term storage is required, ABR microplates containing antibiotic-infuse agar are stored at 2-8° C. in the dark.
At the time of testing, urine samples were diluted 1:20 in sterile saline and vortexed. Each patient sample utilized a single ABR microplate. Five microliters of diluted patient sample were added to each well of the room temperature microplate, the plate was sealed and incubated for 16-18 hr at 37° C.
After incubation, the plate was removed from the incubator and carefully uncovered. Two-hundred microliters of deionized water were added to each well to suspend cells present above the agar and the plates incubated at room temperature for 30 min. After 30 min, 100 μl from each well was removed to a new plate and the OD600 was determined in a spectrophotometer. Five separate reads were taken of each plate and a mean OD600 measurement calculated.
Controls include: No-antibiotic control, Negative control plate, and AB-Blend. No antibiotic control: Any well containing medium that is not infused with antibiotics to ensure viability of bacterial cells present in patient urine samples and included in each plate. […] Negative control plate: Microplate containing antibiotic-infused agar medium without addition of patient sample or cultured bacterial organisms to ensure non-contamination of reagents. AB-Blend: One or more wells containing a combination of antibiotics to ensure there is no bacterial growth.
The raw data was then “blanked” using the measurement obtained from the AB-Blend well, as depicted in Table 5.
as §1, with “0.025” for “0.065”, “6). Any” for “15). An”

Compound	Blanked (OD600 minus Na-Azide well) ([1]; antibiotic 2 μg/mL)	Mean (OD600) ([1]; antibiotic 2 μg/mL)	Blanked (OD600 minus Na-Azide well) ([1]; antibiotic 4 μg/mL)	Mean (OD600) ([1]; antibiotic 4 μg/mL)	Blanked (OD600 minus Na-Azide well) ([1]; antibiotic 8 μg/mL)	Mean (OD600) ([1]; antibiotic 8 μg/mL)	Blanked (OD600 minus AB-Blend well) ([2]; antibiotic 4 μg/mL)	Mean (OD600) ([2]; antibiotic 4 μg/mL)	Blanked (OD600 minus AB-Blend well) ([2]; antibiotic 8 μg/mL)	Mean (OD600) ([2]; antibiotic 8 μg/mL)	other results
C[C@H]1COc2c(N3CCN(C)CC3)c(F)cc3c(=O)c(C(=O)O)cn1c23 [Levofloxacin, levofloxacin]	−0.0021	0.0436	−0.0026	0.0431	−0.0014	0.0443	0.0360	0.0744	0.0028	0.0412	Blanked (OD600 minus Na-Azide well) ([1]; antibiotic 1 μg/mL): 0.0723; Mean (OD600) ([1]; antibiotic 1 μg/mL): 0.1180; Blanked (OD600 minus AB-Blend well) ([2]; antibiotic 1 μg/mL): 0.0024; Mean (OD600) ([2]; antibiotic 1 μg/mL): 0.0408; Blanked (OD600 minus AB-Blend well) ([2]; antibiotic 2 μg/mL): 0.0017; Mean (OD600) ([2]; antibiotic 2 μg/mL): 0.0401
O=C1CN(/N=C/c2ccc([N+](=O)[O-])o2)C(=O)N1 [Nitrofurantoin, nitrofurantoin]	–	–	–	–	–	–	–	–	–	–	Blanked (OD600 minus Na-Azide well) ([1]; antibiotic 32 μg/mL): 0.0095; Mean (OD600) ([1]; antibiotic 32 μg/mL): 0.0552; Blanked (OD600 minus AB-Blend well) ([2]; antibiotic 32 μg/mL): 0.0003; Mean (OD600) ([2]; antibiotic 32 μg/mL): 0.0387; Blanked (OD600 minus AB-Blend well) ([2]; antibiotic 64 μg/mL): 0.0002; Mean (OD600) ([2]; antibiotic 64 μg/mL): 0.0386
CN(C)[C@@H]1C(O)=C(C(N)=O)C(=O)[C@@]2(O)C(O)=C3C(=O)c4c(O)cccc4[C@@](C)(O)[C@H]3C[C@@H]12 [tetracycline]	0.1627	0.2084	0.1767	0.2224	0.1139	0.1596	0.3920	0.4304	0.4012	0.4396	Blanked (OD600 minus Na-Azide well) ([1]; antibiotic 16 μg/mL): 0.0082; Mean (OD600) ([1]; antibiotic 16 μg/mL): 0.0539; Blanked (OD600 minus AB-Blend well) ([2]; antibiotic 16 μg/mL): 0.4166; Mean (OD600) ([2]; antibiotic 16 μg/mL): 0.4550
